Laboratory results taken from patent publication US11655210B2, “Compound for improving L-arginine bioavailability” (The General Hospital Corporation, priority 2018, dated 2023).
Where two headings read alike, the source gives them in different places.

Legend:
[1] = tested on: Human Brain Microvascular Endothelial Cells (HBMVEC); assay: CellTox Green 24-hour dose dependent cytotoxicity assay; format: cell-based; details: for toxicity in the cellular model: 100 nM, 10 μM, 100 μM, 0.5 mM
Description: Cell cultures were prepared using the following general procedures.
1. Under aseptic conditions 1×20 mm sterile tissue culture dish was coated with sterile 1:100 collagen for two hours at room temperature.
2. Under aseptic conditions 2× sterile 96 well-plates were coated with sterile 50 μL 1:100 collagen for two hours at room temperature.
3. After 2 hr collagen was recollected into 50 mL conical tube.
4. The petri dish and 2×96 well-plates were washed with warmed PBS.
5. Once 60% confluency of HBMVEC was observed, the plate was prepped for passage.
6. Media was aspirated from dish and washed with 1×PBS.
7. 1 mL of Trypsin was added, and the plate was transferred to 37° C. incubator for 1-2 min until cells appeared detached.
8. The plate was transferred back into sterile conditions and 2 mL of EndoGro Basal Media was added to inhibit Trypsin reaction.
9. Cells were pipetted 20× and thoroughly mixed before transferring into 25 mL of EndoGro Basal Media.
10. 100 μL of this mixture was added into each well both 96 well-plate.
11. Left over 5.8 mL of cell solution was transferred to petri dish previously coated with collagen and washed with 1×PBS.
12. Plates were incubated for 48 hours at 37° C.
The following procedures were performed for the cell cytotoxicity assay (CellTox™ Green Cytotoxicity Assay; Promega Corporation). See also CellTox™ Green Cytotoxicity Assay, Instructions for Use of Products G8741, G8742, G8743, and G8731, revised May 2015, the disclosure of which is incorporated herein by reference in its entirety.
1. Samples containing 1:1000 L-Arginine (L-Arg; 100 nM, 10 μM, 100 μM, or 0.5 mL) or 1:1000 of 2-amino-5-guanidino-N-(4-guanidinobutyl)pentanamide (Example 1; 100 nM, 10 μM, 100 μM, or 0.5 mL) were prepared with EndoGro Basal Media without supplements (MWOS) into sterile 10×1 mL microcentrifuge tubes. For concentrations of 0, 1:1000 PBS to MWOS was made.
2. […]
4. Once the wells were treated, plates were incubated at 37° C. for 24 hours and analyzed at 485-500 nm/520-530 nm after cytotoxicity assay treatment.

[2] = tested on: NO production in Human Brain Microvascular Endothelial Cells (HBMVEC); assay: In vitro NO detection assay (Nitric Oxide Cell-Based HTS Assay); details: 100 nM to 0.5 mM, analyzed every 15 mins for 1 h, Example 1 versus L-arginine, FIGS. 3-4
Description: “A” Bars: […]; “B” bars: 10 μM; “C” bars: 100 μM; “D” bars: 0.5 mM.
The following general procedures were performed for the NO detection assay. See, e.g., Nitric Oxide Cell-Based HTS Assay Kit technical data sheet, Biovision Incorporated; Catalog #K979-10, September 2016, the disclosure of which is incorporated herein by reference in its entirety.
1. Performed cell culture protocol as described in Example 2.
2. Warmed all reagents in 37° C. water bath.
3. Master mix: 3 μL dye to 1.5 mL of Assay buffer for at least 60 wells.
4. Standard curve master mix: 5 μL NO stock solution to 95 μL NO Buffer for at least 60 wells.
5. Media was aspirated from column 1B-1G before aliquoting standard curve solution, as shown below in Table 2.
6. Media was aspirated from 2B-2G through 6B-G before 50 μL aliquots of staining dye. This step was repeated for […] through 10B-10G.
7. Plates were incubated for 1 hour in 37° C.
8. After 1 hour, plates were transferred back into sterile conditions and washed 2× with EndoGro Media (previously warmed to 37° C.) before aliquoting the concentrations shown in Table 3 into each well.
9. Plates were incubated at 37° C. and analyzed every 15 mins for 1 h.

[3] = cited from earlier work; for baseline plasma concentration of L-arginine: normal diet over 8 hours

## N=C(N)NCCCCNC(=O)C(N)CCCNC(=N)N (centres unmarked) [Example 1, 2-amino-5-guanidino-N-(4-guanidinobutyl)pentanamide]
[1]
  toxicity in the cellular model: non-toxic
[1]; FIG. 2
  toxicity in comparison to L-arginine: no significant difference in toxicity
[2]
  capacity for mediating NO production: nearly identical capacity for mediating NO production

## N=C(N)NCCC[C@H](N)C(=O)O [L-arginine]
[1]
  toxicity in the cellular model: non-toxic
[2]
  capacity for mediating NO production: nearly identical capacity for mediating NO production
[3]; converted value
  baseline plasma concentration of L-arginine: ~86.7 µM
[3]
  baseline plasma concentration of L-arginine: about 15.1±2.6 μg/mL
[3]; single oral 10 g dose, converted value
  peak concentration: ~287.0 µM
[3]; single oral 10 g dose
  absolute bioavailability: about 20%
  peak concentration: 50.0 µg/mL
  time of peak concentration after administration: 1 h
